From patent US7732473B2, “Compounds with nootropic action, their preparation, pharmaceutical compositions containing them, and use thereof” (Neurotune AG, priority 2006, dated 2010) come the findings set out here.

The subject of series [1] is rat model of mononeuropathy dx. As to the kind of experiment: Paw-pressure test in rat chronic constriction injury model of mononeuropathy, injured paw (dx). It counts as in vivo. Conditions: i.c.v., dose per compound (3-300 μg); paw-pressure test 14 days after operation. From the text:
Pharmacological Methods Chronic Constriction Injury Model
A peripheral mononeuropathy was produced in adult rats by placing loosely constrictive ligatures around the common sciatic nerve according to the method described by Bennett & Xie (Pain […], 33, 87-107).
Rats were anesthetized with chloral hydrate. The common sciatic nerve was exposed at the level of the middle of the thigh by blunt dissection through biceps femoris. Proximal to sciatica's trifurcation, about 1 cm of the nerve was freed of adhering tissue and four ligatures (3/0 silk tread) were tied loosely around it with about 1 mm spacing. The length of the nerve thus affected was […]. Great care was taken to tie the ligatures such that the diameter of the nerve was seen to be just barely constricted when viewed with 40× magnification. The left paw was untouched.
The nociceptive threshold in the rat was determined with an analgesimeter (Ugo Basile, Varese, Italy), according to the method described by Leighton et al. (Br. J. Pharmacol. 1988, 93, 553-560). Rats scoring below 40 g or over 75 g during the test before drug administration (25%) were rejected. An arbitrary cut-off value of 250 g was adopted.

In the case of `N#Cc1ccc(N2C(=O)CN3C(=O)CCC32)cc1` (stereo not drawn), the melting point (commonly the temperature, or range, at which the solid turns liquid) was 175 to 176 °C.

Regarding `O=C1CN2C(=O)CCC2N1` (stereo not drawn) [DIMIRACETAM, 2,5-dioxohexahydro-1H-pyrrolo[1,2-a]imidazole, reference compound], the “antihyperalgic effect compared with saline or vehicle treated group” value in series [1] is listed as “showed an antihyperalgic effect”. `O=C1CCC2N1CC(=O)N2c1ccccc1` (stereo not drawn) [Example 1, 1-Phenyl-tetrahydro-1H-pyrrolo[1,2-a]imidazole-2,5-dione] returned a melting point of 185 to 188 °C. Also, in series [1], the “antihyperalgic effect compared with saline or vehicle treated group” value is “showed an antihyperalgic effect”. On the same counts, the results for `Cc1ccccc1N1C(=O)CN2C(=O)CCC21` (stereo not drawn) [Example 2, 1-o-tolyl-tetrahydro-1H-pyrrolo[1,2-a]imidazole-2,5-dione] are 138 to 139 °C and “showed an antihyperalgic effect”.

In the case of `O=C1CCC2N1CC(=O)N2c1cccs1` (stereo not drawn) [Example 4, 1-Thiophen-2-yl-tetrahydro-pyrrolo[1,2-a]imidazole-2,5-dione], the melting point fell in the range of 170 to 171 °C. As to `Cc1cccc(N2C(=O)CN3C(=O)CCC32)c1` (stereo not drawn) [Example 5, 1-m-Tolyl-tetrahydro-pyrrolo[1,2-a]imidazole-2,5-dione], the melting point lay within 92 to 93 °C. Also, the “antihyperalgic effect compared with saline or vehicle treated group” value in series [1] is on record as “showed an antihyperalgic effect”. Regarding `Cc1ccc(N2C(=O)CN3C(=O)CCC32)cc1` (stereo not drawn) [Example 6, 1-p-Tolyl-tetrahydro-pyrrolo[1,2-a]imidazole-2,5-dione], in series [1], the “antihyperalgic effect compared with saline or vehicle treated group” value is “showed an antihyperalgic effect”. The compound `Cc1ccc(F)cc1N1C(=O)CN2C(=O)CCC21` (stereo not drawn) [Example 7, 1-(5-Fluoro-2-methyl-phenyl)-tetrahydro-pyrrolo[1,2-a]imidazole-2,5-dione] registered a melting point of 147 to 148 °C.

Consider `Cc1c(F)cccc1N1C(=O)CN2C(=O)CCC21` (stereo not drawn) [Example 8], for which the melting point lay in the range of 135 to 137 °C.

`Cc1cc(Cl)ccc1N1C(=O)CN2C(=O)CCC21` (stereo not drawn) [Example 10, 1-(4-Chloro-2-methyl-phenyl)-tetrahydro-pyrrolo[1,2-a]imidazole-2,5-dione] returned a melting point of 122 to 124 °C. For the compound `O=C1CCC2N1CC(=O)N2c1cccc(Cl)c1` (stereo not drawn) [Example 11, 1-(3-Chloro-phenyl)-tetrahydro-pyrrolo [1,2-a]imidazole-2,5-dione], the melting point is 123 to 125 °C. Regarding `COc1cccc(N2C(=O)CN3C(=O)CCC32)c1` (stereo not drawn) [Example 12, 1-(3-Methoxy-phenyl)-tetrahydro-pyrrolo [1,2-a]imidazole-2,5-dione], the melting point fell in the range of 94 to 95 °C. For the compound `N#Cc1cccc(N2C(=O)CN3C(=O)CCC32)c1` (stereo not drawn) [Example 13, 1-(3-Cyano-phenyl)-tetrahydro-pyrrolo [1,2-a]imidazole-2,5-dione], the melting point is 128 to 130 °C. In series [1], the “antihyperalgic effect compared with saline or vehicle treated group” value was “showed an antihyperalgic effect”.

In turn, `O=C1CCC2N1CC(=O)N2c1ccc(Cl)cc1` (stereo not drawn) [Example 14, 1-(4-Chloro-phenyl)-tetrahydro-pyrrolo [1,2-a]imidazole-2,5-dione] registered a melting point of 159 to 160 °C. Same read-out and setting: for `O=C1CCC2N1CC(=O)N2c1cccc(O)c1` (stereo not drawn) [Example 15, 1-(3-Hydroxy-phenyl)-tetrahydro-pyrrolo [1,2-a]imidazole-2,5-dione] the value was 210 to 211 °C; for `COc1ccc(N2C(=O)CN3C(=O)CCC32)cc1` (stereo not drawn) [Example 18, 1-(4-Methoxy-phenyl)-tetrahydro-pyrrolo[1,2-a]imidazole-2,5-dione], 210 to 211 °C; for `Cc1cc(C)cc(N2C(=O)CN3C(=O)CCC32)c1` (stereo not drawn) [Example 19, 1-(3,5-Dimethyl-phenyl)-tetrahydro-pyrrolo [1,2-a]imidazole-2,5-dione], 103 to 104 °C. Consider `Cc1ccc(N2C(=O)CN3C(=O)CCC32)cc1C` (stereo not drawn) [Example 20, 1-(3,4-Dimethyl-phenyl)-tetrahydro-pyrrolo [1,2-a]imidazole-2,5-dione], for which the melting point was 142 to 143 °C.

Compound `O=C1CCC2N1CC(=O)N2c1ccc2ccccc2c1` (stereo not drawn) [Example 21, 1-Naphthalen-2-yl-tetrahydro-pyrrolo [1,2-a]imidazole-2,5-dione] returned a melting point of 175 to 176 °C. `CC(C)c1cccc(N2C(=O)CN3C(=O)CCC32)c1` (stereo not drawn) [Example 22, 1-(3-Isopropyl-phenyl)-tetrahydro-pyrrolo [1,2-a]imidazole-2,5-dione] yielded a melting point of 81 to 82 °C. Also, the “antihyperalgic effect compared with saline or vehicle treated group” value in series [1] is listed as “showed an antihyperalgic effect”.

Turning to `Cc1cc(N2C(=O)CN3C(=O)CCC32)ccc1Cl` (stereo not drawn) [Example 23, 1-(4-Chloro-3-methyl-phenyl)-tetrahydro-pyrrolo[1,2-a]imidazole-2,5-dione], the melting point is 138 to 139 °C. On the same count and under the same terms, the value for `O=C1C(Cc2ccccc2)N2C(=O)CCC2N1c1ccccc1` (stereo not drawn) [Example 24, 3-Benzyl-1-phenyl-tetrahydro-pyrrolo [1,2-a]imidazole-2,5,-dione] was 134 to 136 °C; that for `CC1C(=O)N(c2ccccc2)C2CCC(=O)N12` (stereo not drawn) [Example 25, 3-Methyl-1-phenyl-tetrahydro-pyrrolo [1,2-a]imidazole-2,5,-dione] was 137 to 138 °C; that for `CC(C)CC1C(=O)N(c2ccccc2)C2CCC(=O)N12` (stereo not drawn) [Example 26, 3-Isobutyl-1-phenyl-tetrahydro-pyrrolo [1,2-a]imidazole-2,5,-dione] was 101 to 102 °C. Still for that read-out and setting: the value for `Cc1cc(F)cc(N2C(=O)CN3C(=O)CCC32)c1` (stereo not drawn) [Example 27, 1-(3-Fluoro-5-methyl-phenyl)-tetrahydro-pyrrolo[1,2-a]imidazole-2,5-dione] was 111 to 113 °C. Same read-out and setting: the value for `Cc1ccc(N2C(=O)CN3C(=O)CCC32)cc1F` (stereo not drawn) [Example 28, 1-(3-Fluoro-4-methyl-phenyl)-tetrahydro-pyrrolo[1,2-a]imidazole-2,5-dione] was 136 to 137 °C. Regarding `CC12CCC(=O)N1CC(=O)N2c1ccccc1` (stereo not drawn) [Example 29, 7a-Methyl-1-phenyl-tetrahydro-pyrrolo [1,2-a]imidazole-2,5-dione], the melting point was in the range of 154 to 155 °C. Consider `CC(C)c1ccc(N2C(=O)CN3C(=O)CCC32)cc1` (stereo not drawn) [Example 33, 1-(4-Isopropyl-phenyl)-tetrahydro-pyrrolo [1,2-a]imidazole-2,5-dione], for which the melting point lay in the range of 124 to 125 °C. The same measure, in the same setting: the value for `O=C1CCC2N1CC(=O)N2c1ccc(CO)cc1` (stereo not drawn) [Example 34, 1-(4-Hydroxymethyl-phenyl)-tetrahydro-pyrrolo[1,2-a]imidazole-2,5-dione] was 159 to 161 °C. Turning to `O=C(O)c1ccc(N2C(=O)CN3C(=O)CCC32)cc1` (stereo not drawn) [Example 35, 4-(2,5-Dioxo-hexahydro-pyrrolo[1,2-a]imidazole-1-yl)-benzoic acid], the melting point was 252 to 253 °C. Same read-out and setting: for `CCOC(=O)c1ccc(N2C(=O)CN3C(=O)CCC32)cc1` (stereo not drawn) [Example 36, 4-(2,5-Dioxo-hexahydro-pyrrolo[1,2-a]imidazole-1-yl)-benzoic acid ethyl ester] the value was 158 to 159 °C. On the same count and under the same terms, the value for `CS(=O)(=O)c1ccc(N2C(=O)CN3C(=O)CCC32)cc1` (stereo not drawn) [Example 37, 1-(4-Methanesulfonyl-phenyl)-tetrahydro-pyrrolo[1,2-a]imidazole-2,5-dione] was 143 to 145 °C; that for `O=C1CCC2N1CC(=O)N2c1ccc(F)cc1` (stereo not drawn) [Example 38, 1-(4-Fluoro-phenyl)-tetrahydro-pyrrolo [1,2-a]imidazole-2,5-dione] was 158 to 159 °C. On to `O=C1CCC2N1CC(=O)N2c1ccccn1` (stereo not drawn) [Example 40, 1-Pyridin-2-yl-tetrahydro-pyrrolo[1,2-a] imidazole-2,5-dione], for which the melting point fell in the range of 139 to 140 °C.

As to `O=C1CCC2N1CC(=O)N2c1cccnc1` (stereo not drawn) [Example 41, 1-Pyridin-3-yl-tetrahydro-pyrrolo[1,2-a] imidazole-2,5-dione], the melting point was 180 to 182 °C. `Cc1ccc(N2C(=O)CN3C(=O)CCC32)nc1` (stereo not drawn) [Example 42, 1-(5-Methylpyridin-2-yl)-tetrahydropyrrolo [1,2-a]imidazole-2,5-dione] showed a melting point of 158 to 159 °C. Same read-out and setting: the value for `N#Cc1ccccc1N1C(=O)CN2C(=O)CCC21` (stereo not drawn) [Example 43, 1-(2-Cyano-phenyl)-tetrahydro-pyrrolo [1,2-a]imidazole-2,5-dione] was 94 to 95 °C; that for `O=C1CCC2N1CC(=O)N2c1cccc(F)c1` (stereo not drawn) [Example 44, 1-(3-Fluoro-phenyl)-tetrahydro-pyrrolo [1,2-a]imidazole-2,5-dione] was 145 to 149 °C. On to `NCC1(CC(=O)O)CCCCC1` [GABAPENTIN, reference compound], for which the “antihyperalgic effect compared with saline or vehicle treated group” value in series [1] is “showed an antihyperalgic effect”.

As for `CC[C@@H](C(N)=O)N1CCCC1=O` [LEVETIRACETAM, 2-(2-oxopyrrolidin-1-yl) butyramide, reference compound], in series [1], the “antihyperalgic effect compared with saline or vehicle treated group” value is “showed an antihyperalgic effect”.
